According to article PMC4917279 (Journal of Medicinal Chemistry, 2016):

Key:
[1] = target: T1, ABL1(M351T)-phosphorylated (Homo sapiens, UniProt P00519, M351T); test: KINOMEscan; format: binding; conditions: read-out: %Ctrl @ 1000 nM
T1 construct: purchased DiscoveRx (KINOMEscan service)

ABL1-phosphorylated = target: T2, ABL1-phosphorylated (Homo sapiens, UniProt P00519); test: KINOMEscan; format: binding; conditions: read-out: %Ctrl @ 1000 nM
T2 construct: purchased DiscoveRx

AKT2 = target: T3, AKT2 (Homo sapiens, UniProt P31751); test: KINOMEscan; format: binding; conditions: read-out: %Ctrl @ 1000 nM
T3 construct: purchased DiscoveRx KINOMEscan

BMX = target: T4, BMX (Homo sapiens, UniProt P51813); test: KINOMEscan; format: binding; conditions: read-out: %Ctrl @ 1000 nM
T4 construct: purchased DiscoveRx KINOMEscan

CAMKK2 = target: T5, CAMKK2 (Homo sapiens, UniProt Q96RR4); test: KINOMEscan; format: binding; conditions: read-out: %Ctrl @ 1000 nM
T5 construct: purchased DiscoveRx KINOMEscan

CSK = target: T6, CSK (Homo sapiens, UniProt P41240); test: KINOMEscan; format: binding; conditions: read-out: %Ctrl @ 1000 nM
T6 construct: purchased DiscoveRx KINOMEscan

EPHB2 = target: T7, EPHB2 (Homo sapiens, UniProt P29323); test: KINOMEscan; format: binding; conditions: read-out: %Ctrl @ 1000 nM
T7 construct: purchased DiscoveRx KINOMEscan

ERBB4 = target: T8, ERBB4 (Homo sapiens, UniProt Q15303); test: KINOMEscan; format: binding; conditions: read-out: %Ctrl @ 1000 nM
T8 construct: purchased DiscoveRx KINOMEscan
T8 sequence (Q15303 26-1308): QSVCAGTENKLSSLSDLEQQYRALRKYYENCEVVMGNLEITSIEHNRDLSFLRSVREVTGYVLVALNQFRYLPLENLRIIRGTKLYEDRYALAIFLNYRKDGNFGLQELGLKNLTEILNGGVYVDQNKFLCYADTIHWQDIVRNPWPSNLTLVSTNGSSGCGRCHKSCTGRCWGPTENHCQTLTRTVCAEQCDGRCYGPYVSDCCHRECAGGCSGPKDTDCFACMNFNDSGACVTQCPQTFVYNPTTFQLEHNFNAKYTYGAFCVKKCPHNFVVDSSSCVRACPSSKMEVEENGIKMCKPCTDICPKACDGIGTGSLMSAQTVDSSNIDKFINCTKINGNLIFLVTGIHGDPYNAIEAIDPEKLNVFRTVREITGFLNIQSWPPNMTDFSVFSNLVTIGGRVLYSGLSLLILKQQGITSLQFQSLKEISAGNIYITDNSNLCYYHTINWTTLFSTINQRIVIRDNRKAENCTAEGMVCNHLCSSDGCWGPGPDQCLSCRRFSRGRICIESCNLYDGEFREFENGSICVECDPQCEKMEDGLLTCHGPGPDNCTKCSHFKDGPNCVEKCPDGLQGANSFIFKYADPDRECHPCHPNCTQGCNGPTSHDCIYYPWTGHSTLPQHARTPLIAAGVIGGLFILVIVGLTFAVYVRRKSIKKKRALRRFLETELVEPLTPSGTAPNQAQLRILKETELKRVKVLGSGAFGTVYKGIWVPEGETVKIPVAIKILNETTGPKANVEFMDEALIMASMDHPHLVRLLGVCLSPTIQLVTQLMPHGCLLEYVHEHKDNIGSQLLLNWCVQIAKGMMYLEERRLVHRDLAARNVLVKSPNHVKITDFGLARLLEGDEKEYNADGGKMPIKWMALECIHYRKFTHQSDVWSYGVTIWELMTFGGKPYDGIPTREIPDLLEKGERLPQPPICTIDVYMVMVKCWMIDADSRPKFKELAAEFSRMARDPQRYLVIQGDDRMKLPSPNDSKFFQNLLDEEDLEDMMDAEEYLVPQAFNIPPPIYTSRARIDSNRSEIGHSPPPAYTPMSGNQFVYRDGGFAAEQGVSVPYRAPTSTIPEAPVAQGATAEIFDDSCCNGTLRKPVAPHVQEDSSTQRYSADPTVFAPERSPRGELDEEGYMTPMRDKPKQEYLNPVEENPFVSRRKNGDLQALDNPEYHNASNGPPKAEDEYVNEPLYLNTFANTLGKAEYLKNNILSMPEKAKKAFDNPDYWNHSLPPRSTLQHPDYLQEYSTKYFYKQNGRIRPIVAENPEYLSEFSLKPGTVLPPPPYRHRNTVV

FAK = target: T9, FAK (Homo sapiens, UniProt Q05397); test: KINOMEscan; format: binding; conditions: read-out: %Ctrl @ 1000 nM
T9 construct: purchased DiscoveRx KINOMEscan

FLT3(ITD) = test: KINOMEscan; format: binding
IKK-beta = target: T10, IKK-beta (Homo sapiens, UniProt O14920); test: KINOMEscan; format: binding; conditions: read-out: %Ctrl @ 1000 nM
T10 construct: purchased DiscoveRx KINOMEscan

JNK2 = target: T11, JNK2 (Homo sapiens, UniProt P45984); test: KINOMEscan; format: binding; conditions: read-out: %Ctrl @ 1000 nM
T11 construct: purchased DiscoveRx KINOMEscan

KIT(L576P) = target: T12, KIT(L576P) (Homo sapiens, UniProt P10721, L576P); test: KINOMEscan; format: binding; conditions: read-out: %Ctrl @ 1000 nM
T12 construct: purchased DiscoveRx KINOMEscan

KIT(V559D,T670I) = target: T13, KIT(V559D,T670I) (Homo sapiens, UniProt P10721, T670I/V559D); test: KINOMEscan; format: binding; conditions: read-out: %Ctrl @ 1000 nM
T13 construct: purchased DiscoveRx KINOMEscan

LOK = target: T14, LOK (Homo sapiens, UniProt O94804); test: KINOMEscan; format: binding; conditions: read-out: %Ctrl @ 1000 nM
T14 construct: purchased DiscoveRx KINOMEscan

MARK4 = target: T15, MARK4 (Homo sapiens, UniProt Q96L34); test: KINOMEscan; format: binding; conditions: read-out: %Ctrl @ 1000 nM
T15 construct: purchased DiscoveRx KINOMEscan

MAST1 = target: T16, MAST1 (Homo sapiens, UniProt Q9Y2H9); test: KINOMEscan; format: binding; conditions: read-out: %Ctrl @ 1000 nM
T16 construct: purchased DiscoveRx KINOMEscan

MERTK = target: T17, MERTK (Homo sapiens, UniProt Q12866); test: KINOMEscan; format: binding; conditions: read-out: %Ctrl @ 1000 nM
T17 construct: purchased DiscoveRx KINOMEscan

MYO3A = target: T18, MYO3A (Homo sapiens, UniProt Q8NEV4); test: KINOMEscan; format: binding; conditions: read-out: %Ctrl @ 1000 nM
T18 construct: purchased DiscoveRx KINOMEscan
T18 sequence (Q8NEV4 whole entry): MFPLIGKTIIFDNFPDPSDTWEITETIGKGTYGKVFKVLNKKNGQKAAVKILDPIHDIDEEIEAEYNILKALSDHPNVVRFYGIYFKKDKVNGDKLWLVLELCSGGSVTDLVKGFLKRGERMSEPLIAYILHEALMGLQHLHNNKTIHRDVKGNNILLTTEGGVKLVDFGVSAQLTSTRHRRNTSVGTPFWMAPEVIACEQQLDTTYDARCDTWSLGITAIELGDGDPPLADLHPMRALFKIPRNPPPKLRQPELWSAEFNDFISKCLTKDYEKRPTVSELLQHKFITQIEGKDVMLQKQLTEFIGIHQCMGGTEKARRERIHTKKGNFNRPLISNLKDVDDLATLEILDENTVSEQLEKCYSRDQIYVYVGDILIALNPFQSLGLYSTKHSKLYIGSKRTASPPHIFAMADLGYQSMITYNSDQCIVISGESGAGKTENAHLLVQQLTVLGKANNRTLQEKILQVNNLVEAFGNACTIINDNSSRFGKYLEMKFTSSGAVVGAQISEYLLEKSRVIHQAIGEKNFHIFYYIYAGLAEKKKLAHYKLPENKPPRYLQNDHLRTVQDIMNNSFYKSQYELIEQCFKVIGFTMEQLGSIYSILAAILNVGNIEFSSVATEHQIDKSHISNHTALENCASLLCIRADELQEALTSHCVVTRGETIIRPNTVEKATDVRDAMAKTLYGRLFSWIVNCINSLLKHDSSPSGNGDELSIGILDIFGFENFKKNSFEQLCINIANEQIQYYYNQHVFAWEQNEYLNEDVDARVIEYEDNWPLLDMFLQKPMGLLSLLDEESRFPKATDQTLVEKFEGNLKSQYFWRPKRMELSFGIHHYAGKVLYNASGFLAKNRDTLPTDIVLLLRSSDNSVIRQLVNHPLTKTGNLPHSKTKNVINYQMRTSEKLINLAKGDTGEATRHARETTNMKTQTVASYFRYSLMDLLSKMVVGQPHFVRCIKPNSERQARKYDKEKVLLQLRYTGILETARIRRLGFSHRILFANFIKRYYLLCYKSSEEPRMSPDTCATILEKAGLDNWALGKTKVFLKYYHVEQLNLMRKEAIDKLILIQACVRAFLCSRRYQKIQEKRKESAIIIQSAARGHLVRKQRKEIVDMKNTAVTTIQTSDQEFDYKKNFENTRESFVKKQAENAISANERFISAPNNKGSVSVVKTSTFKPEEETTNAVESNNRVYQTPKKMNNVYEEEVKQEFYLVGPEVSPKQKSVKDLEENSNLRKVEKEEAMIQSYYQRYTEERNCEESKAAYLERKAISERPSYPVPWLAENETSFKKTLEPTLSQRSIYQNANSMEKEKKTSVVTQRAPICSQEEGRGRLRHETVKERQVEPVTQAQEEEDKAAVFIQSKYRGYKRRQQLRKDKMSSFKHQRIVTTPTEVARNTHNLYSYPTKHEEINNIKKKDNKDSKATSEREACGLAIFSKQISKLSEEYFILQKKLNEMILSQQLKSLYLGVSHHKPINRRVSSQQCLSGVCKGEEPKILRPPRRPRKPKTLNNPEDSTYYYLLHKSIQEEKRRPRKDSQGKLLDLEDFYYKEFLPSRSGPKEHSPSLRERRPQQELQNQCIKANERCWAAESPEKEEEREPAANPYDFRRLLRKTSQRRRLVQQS

NEK11 = target: T19, NEK11 (Homo sapiens, UniProt Q8NG66); test: KINOMEscan; format: binding; conditions: read-out: %Ctrl @ 1000 nM
T19 construct: purchased DiscoveRx KINOMEscan

NEK7 = target: T20, NEK7 (Homo sapiens, UniProt Q8TDX7); test: KINOMEscan; format: binding; conditions: read-out: %Ctrl @ 1000 nM
T20 construct: purchased DiscoveRx KINOMEscan

NEK9 = target: T21, NEK9 (Homo sapiens, UniProt Q8TD19); test: KINOMEscan; format: binding; conditions: read-out: %Ctrl @ 1000 nM
T21 construct: purchased DiscoveRx KINOMEscan

PCTK1 = target: T22, PCTK1 (Homo sapiens, UniProt Q00536); test: KINOMEscan; format: binding; conditions: read-out: %Ctrl @ 1000 nM
T22 construct: purchased DiscoveRx KINOMEscan

PCTK2 = target: T23, PCTK2 (Homo sapiens, UniProt Q00537); test: KINOMEscan; format: binding; conditions: read-out: %Ctrl @ 1000 nM
T23 construct: purchased DiscoveRx KINOMEscan

PFCDPK1(P.falciparum) = target: T24, PFCDPK1(P.falciparum) (Plasmodium falciparum, UniProt P62344); test: KINOMEscan; format: binding; conditions: read-out: %Ctrl @ 1000 nM
T24 construct: purchased DiscoveRx KINOMEscan

PIP5K2B = target: T25, PIP5K2B (Homo sapiens, UniProt P78356); test: KINOMEscan; format: binding; conditions: read-out: %Ctrl @ 1000 nM
T25 construct: purchased DiscoveRx KINOMEscan

PKAC-alpha = target: T26, PKAC-alpha (Homo sapiens, UniProt P17612); test: KINOMEscan; format: binding; conditions: read-out: %Ctrl @ 1000 nM
T26 construct: purchased DiscoveRx KINOMEscan

PKN2 = target: T27, PKN2 (Homo sapiens, UniProt Q16513); test: KINOMEscan; format: binding; conditions: read-out: %Ctrl @ 1000 nM
T27 construct: purchased DiscoveRx KINOMEscan
T27 sequence (Q16513 whole entry): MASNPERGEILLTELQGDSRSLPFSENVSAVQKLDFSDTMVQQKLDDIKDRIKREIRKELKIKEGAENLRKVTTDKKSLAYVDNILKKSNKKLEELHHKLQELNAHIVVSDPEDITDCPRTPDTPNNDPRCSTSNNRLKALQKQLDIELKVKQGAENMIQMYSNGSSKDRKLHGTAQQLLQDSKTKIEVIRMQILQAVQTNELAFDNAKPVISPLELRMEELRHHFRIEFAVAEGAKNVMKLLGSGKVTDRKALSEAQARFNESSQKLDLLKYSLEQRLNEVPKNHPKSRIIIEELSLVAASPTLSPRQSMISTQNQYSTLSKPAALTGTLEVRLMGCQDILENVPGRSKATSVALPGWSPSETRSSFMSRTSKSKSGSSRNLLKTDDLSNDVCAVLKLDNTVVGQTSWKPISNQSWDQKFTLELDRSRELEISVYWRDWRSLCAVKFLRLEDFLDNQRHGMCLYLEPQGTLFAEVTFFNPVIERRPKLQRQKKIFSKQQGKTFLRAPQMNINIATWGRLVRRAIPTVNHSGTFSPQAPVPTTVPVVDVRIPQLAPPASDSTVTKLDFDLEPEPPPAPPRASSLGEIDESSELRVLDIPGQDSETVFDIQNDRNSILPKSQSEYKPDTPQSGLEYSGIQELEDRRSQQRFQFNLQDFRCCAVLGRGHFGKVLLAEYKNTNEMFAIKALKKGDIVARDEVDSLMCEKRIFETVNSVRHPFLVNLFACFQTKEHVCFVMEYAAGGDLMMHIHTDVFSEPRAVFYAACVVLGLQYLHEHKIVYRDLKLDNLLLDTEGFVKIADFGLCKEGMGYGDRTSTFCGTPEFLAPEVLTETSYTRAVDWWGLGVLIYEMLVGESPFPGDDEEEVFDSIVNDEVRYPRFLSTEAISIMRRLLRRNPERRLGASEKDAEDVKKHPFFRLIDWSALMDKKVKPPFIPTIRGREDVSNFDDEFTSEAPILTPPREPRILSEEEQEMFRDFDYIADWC

PKNB(M.tuberculosis) = target: T28, PKNB(M.tuberculosis) (Mycobacterium tuberculosis, UniProt P9WI81); test: biochemical; format: binding; conditions: read-out: %Ctrl @ 1000 nM
T28 construct: purchased DiscoveRx KINOMEscan
T28 sequence (P9WI81 whole entry): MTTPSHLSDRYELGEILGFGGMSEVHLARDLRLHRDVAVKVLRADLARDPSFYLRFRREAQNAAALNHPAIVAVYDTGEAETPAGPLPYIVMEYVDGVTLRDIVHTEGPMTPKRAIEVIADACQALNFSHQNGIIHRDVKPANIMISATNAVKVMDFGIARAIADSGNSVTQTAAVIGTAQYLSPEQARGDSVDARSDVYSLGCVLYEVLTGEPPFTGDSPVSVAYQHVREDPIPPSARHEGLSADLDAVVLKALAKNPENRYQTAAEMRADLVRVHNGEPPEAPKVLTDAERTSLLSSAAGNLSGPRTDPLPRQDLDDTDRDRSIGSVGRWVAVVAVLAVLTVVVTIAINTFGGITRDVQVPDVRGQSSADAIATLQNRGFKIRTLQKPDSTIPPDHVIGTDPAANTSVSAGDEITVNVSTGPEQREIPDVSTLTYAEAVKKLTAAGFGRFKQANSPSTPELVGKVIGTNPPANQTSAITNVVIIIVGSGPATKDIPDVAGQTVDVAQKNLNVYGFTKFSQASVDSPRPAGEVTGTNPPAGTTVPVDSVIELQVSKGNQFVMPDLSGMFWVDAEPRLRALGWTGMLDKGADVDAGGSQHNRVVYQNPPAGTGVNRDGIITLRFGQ

PRKCI = target: T29, PRKCI (Homo sapiens, UniProt P41743); test: KINOMEscan; format: binding; conditions: read-out: %Ctrl @ 1000 nM
T29 construct: purchased DiscoveRx KINOMEscan

RIOK3 = target: T30, RIOK3 (Homo sapiens, UniProt O14730); test: KINOMEscan; format: binding; conditions: read-out: %Ctrl @ 1000 nM
T30 construct: purchased DiscoveRx KINOMEscan

TYRO3 = target: T31, TYRO3 (Homo sapiens, UniProt Q06418); test: KINOMEscan; format: binding; conditions: read-out: %Ctrl @ 1000 nM
T31 construct: purchased DiscoveRx KINOMEscan

ULK2 = target: T32, ULK2 (Homo sapiens, UniProt Q8IYT8); test: KINOMEscan; format: binding; conditions: read-out: %Ctrl @ 1000 nM
T32 construct: purchased DiscoveRx KINOMEscan

ULK3 = target: T33, ULK3 (Homo sapiens, UniProt Q6PHR2); test: KINOMEscan; format: binding; conditions: read-out: %Ctrl @ 1000 nM
T33 construct: purchased DiscoveRx KINOMEscan
T33 sequence (Q6PHR2 whole entry): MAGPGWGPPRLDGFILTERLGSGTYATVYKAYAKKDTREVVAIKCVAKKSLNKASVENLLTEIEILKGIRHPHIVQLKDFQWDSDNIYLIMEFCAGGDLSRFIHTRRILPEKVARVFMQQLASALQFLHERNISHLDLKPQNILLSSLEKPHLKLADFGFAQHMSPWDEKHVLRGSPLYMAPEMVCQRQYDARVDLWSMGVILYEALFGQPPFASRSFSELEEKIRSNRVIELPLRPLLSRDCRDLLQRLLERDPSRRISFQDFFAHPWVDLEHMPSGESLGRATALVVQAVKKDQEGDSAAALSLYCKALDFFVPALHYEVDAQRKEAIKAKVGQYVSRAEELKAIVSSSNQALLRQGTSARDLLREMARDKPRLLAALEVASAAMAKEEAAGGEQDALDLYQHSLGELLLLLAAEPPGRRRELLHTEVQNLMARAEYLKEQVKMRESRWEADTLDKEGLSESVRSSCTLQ

SMYD2 = SMYD2 (Homo sapiens, UniProt Q9NRG4); test: Western blot of SY46 methylation signal in SMYD2 overexpressing KYSE150 cells, time course; format: cell-based; parameters: expressed in transfected cells; conditions: 10 µM
Description: 3. Figure S2 Validation of AHNAK as SMYD2 substrate
Figure S2 (A) Overexpression of SMYD2 in KYSE.150 cells. SMYD2 is primarily detected in the cytosol. One SMYD2 overexpressing and one non.overexpressing cell are highlighted by arrows. The methylation signal detected by SY46 is overlapping with the SMYD2 overexpressing cells (B) Western blot analysis of SMYD2 overexpressing or parental KYSE150 cells. SY46 methylation antibody detects a strong increase in methylation signal in the high molecular weight region in SMYD2 overexpressing cells. (Later we discovered AHNAK as the high molecular substrate of around 630 kDa. Due to the high molecular weight of AHNAK and partial degradation different fragments are detected.) (C) Western blot analysis of SMYD2 overexpressing KYSE150 cells treated with DMSO or 10 µM of either AZ505 or (S).4 and harvested after the indicated time points. The methylation signal detected by SY46 was reduced in a time dependent manner. (D) Only expression of SMYD2 leads to specific methylation signals detected by SY46. Western blot analysis of a transient overexpression of wildtype (SMYD2WT /SMYD3WT) or enzymatically point mutants (SMYD2H207A/SMYD3N205A) of either SMYD2 or SMYD3 in MDA.MB231 or HeLa cells. Only in SMYD2WT cells a methylation signal is detected. Expression of green fluorescence protein (GFP) was used as control (E) […]

CCN(C(=O)CO)[C@H]1CN(/C(=N\C#N)Nc2cccc(OC(F)F)c2)N=C1c1ccc(Cl)c(Cl)c1 [(S)-4]
remaining binding at 1 µM [1]: 91%
remaining binding at 1 µM (ABL1-phosphorylated): 90%
remaining binding at 1 µM (AKT2): 100%
remaining binding at 1 µM (BMX): 89%
remaining binding at 1 µM (CAMKK2): 84%
remaining binding at 1 µM (CSK): 91%
remaining binding at 1 µM (EPHB2): 74%
remaining binding at 1 µM (ERBB4): 93%
remaining binding at 1 µM (FAK): 99%
%Ctrl @ 1000 nM (FLT3(ITD)): 91%
remaining binding at 1 µM (IKK-beta): 100%
remaining binding at 1 µM (JNK2): 100%
remaining binding at 1 µM (KIT(L576P)): 85%
remaining binding at 1 µM (KIT(V559D,T670I)): 100%
remaining binding at 1 µM (LOK): 69%
remaining binding at 1 µM (MARK4): 75%
remaining binding at 1 µM (MAST1): 83%
remaining binding at 1 µM (MERTK): 73%
remaining binding at 1 µM (MYO3A): 100%
remaining binding at 1 µM (NEK11): 77%
remaining binding at 1 µM (NEK7): 100%
remaining binding at 1 µM (NEK9): 100%
remaining binding at 1 µM (PCTK1): 98%
remaining binding at 1 µM (PCTK2): 91%
remaining binding at 1 µM (PFCDPK1(P.falciparum)): 76%
remaining binding at 1 µM (PIP5K2B): 100%
remaining binding at 1 µM (PKAC-alpha): 74%
remaining binding at 1 µM (PKN2): 100%
remaining activity at 1 µM (PKNB(M.tuberculosis)): 88%
remaining binding at 1 µM (PRKCI): 63%
remaining binding at 1 µM (RIOK3): 46%
remaining binding at 1 µM (TYRO3): 100%
remaining binding at 1 µM (ULK2): 100%
remaining binding at 1 µM (ULK3): 74%
Methylation signal detected by SY46 (SMYD2): reduced
